How the values were obtained:
[1] = molecular target: hKv1.5 (Homo sapiens, UniProt P22460); test: Kv1.5 Autopatch Electrophysiology (whole cell patch-clamp); assay type: cell-based; conditions: compound at 1µM, room temperature (22-24°C), held at -80mV, step to 0mV for 1000ms, total charge measured
Method in brief: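 Whole-cell automated patch-clamp at 22-24°C, compounds tested at 1µM in external bather (KCl/K-gluconate, pH 7.4; KCl/EGTA pipette). Cells held at -80mV and stepped to 0mV for 1000ms every 5s; only cells with IK > 500 pA and Rseries ≤18 MΩ used. Read-out: total charge over the whole step.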

[2] = molecular target: T1, human Kv1.5 (Homo sapiens, UniProt P22460); test: Kv1.5 Rb+ Efflux Assay; assay type: cell-based; conditions: inhibition of 86Rb+ efflux through Kv1.5; cells stably transfected with human Kv1.5; 10 point concentration response curves n=2; normalised to 2.5mM 4 amino-pyridine block
T1 construct: expressed in transfected cells
T1 sequence (P22460 whole entry): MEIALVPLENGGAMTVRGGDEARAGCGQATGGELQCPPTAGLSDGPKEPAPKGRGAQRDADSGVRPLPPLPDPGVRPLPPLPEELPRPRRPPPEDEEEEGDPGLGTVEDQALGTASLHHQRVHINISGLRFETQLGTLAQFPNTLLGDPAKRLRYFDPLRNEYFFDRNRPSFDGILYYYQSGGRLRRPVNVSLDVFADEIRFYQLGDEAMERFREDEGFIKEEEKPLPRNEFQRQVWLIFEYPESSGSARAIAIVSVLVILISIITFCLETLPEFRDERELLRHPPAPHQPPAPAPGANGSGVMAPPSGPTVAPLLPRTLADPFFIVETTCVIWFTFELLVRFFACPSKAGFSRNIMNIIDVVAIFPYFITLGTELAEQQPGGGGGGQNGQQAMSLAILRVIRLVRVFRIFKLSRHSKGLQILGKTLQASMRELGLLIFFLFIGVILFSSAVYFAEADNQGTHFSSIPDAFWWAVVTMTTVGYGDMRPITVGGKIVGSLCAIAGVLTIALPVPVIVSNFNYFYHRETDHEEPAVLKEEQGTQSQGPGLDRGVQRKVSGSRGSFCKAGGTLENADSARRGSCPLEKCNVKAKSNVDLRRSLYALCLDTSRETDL
Method in brief: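 Cells stably expressing human Kv1.5 loaded with ⁸⁶Rb⁺ ≥3 h, preincubated 10 min at room temperature with compound, then depolarised with high-KCl (145mM) buffer for 10 min; effluxed ⁸⁶Rb⁺ counted by Cerenkov emission (alternatively ⁸⁵Rb⁺ by atomic absorption). Inhibition normalised to 2.5mM 4-aminopyridine block; IC50 from 10-point curves, n=2, variable-slope sigmoidal fit.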

Sequence of hKv1.5 (P22460 whole entry): as above

Row | inhibition at 1 µM [1] | IC50 [2] | Structure (SMILES)
1 | 47.4% | > 30000 nM | Cc1ccc(-c2csc3ncnc(Oc4ccc5ccccc5c4)c23)cc1 [Example 129, 4-(Naphthalen-2-yloxy)-5-p-tolyl-thieno[2,3-d]pyrimidine]
2 | 22.9% | 6320 nM | CC(C)CNc1ncnc2scc(-c3cccs3)c12 [Example 96, Isobutyl-(5-thiophen-2-yl-thieno[2,3-d]pyrimidin-4-yl)-amine]
3 | 63% | 10400 nM | Fc1ccc(-c2csc3ncnc(NCc4ccccn4)c23)cc1F [Example 333, [5-(3,4-Difluoro-phenyl)-thieno[2,3-d]pyrimidin-4-yl]-pyridin-2-ylmethyl-amine]
4 | 37.2% | 410 nM | Cc1ccc(CNc2ncnc3scc(-c4ccccc4)c23)o1 [Example 108, (5-Methyl-furan-2-ylmethyl)-(5-phenyl-thieno[2,3-d]pyrimidin-4-yl)-amine]
5 | 81% | 1320 nM | CC(C)(C)c1ccc(-c2csc3ncnc(NCc4ccccn4)c23)cc1 [Example 144, [5-(4-tert-Butyl-phenyl)-thieno[2,3-d]pyrimidin-4-yl]-pyridin-2-ylmethyl-amine]
6 | 63% | 280 nM | c1ccc(-c2csc3ncnc(NCc4ccccn4)c23)cc1 [Example 105, (5-Phenyl-thieno[2,3-d]pyrimidin-4-yl)-pyridin-2-ylmethyl-amine]
7 | 25% | > 30000 nM | Cc1ccc(-c2csc3ncnc(NCCN4CCNC4=O)c23)cc1 [Example 128, 1-[2-(5-p-Tolyl-thieno[2,3-d]pyrimidin-4-ylamino)-ethyl]-imidazolidin-2-one]
8 | 96.6% | 330 nM | OCCN(CCO)c1nc(NCc2ccccn2)c2c(-c3ccccc3)csc2n1 [Example 208, 2-((2-Hydroxy-ethyl)-{5-phenyl-4-[(pyridin-2-ylmethyl)-amino]-thieno[2,3-d]pyrimidin-2-yl}-amino)-ethanol]
9 | 92.8% | 530 nM | Brc1sc2ncnc(NCc3ccccn3)c2c1-c1ccccc1 [Example 164, (6-Bromo-5-phenyl-thieno[2,3-d]pyrimidin-4-yl)-pyridin-2-ylmethyl-amine]
10 | 98% | 2700 nM | CCOC(=O)CCNc1nc(NCc2ccccn2)c2c(-c3ccccc3)csc2n1 [Example 202, 3-{5-Phenyl-4-[(pyridin-2-ylmethyl)-amino]-thieno[2,3-d]pyrimidin-2-ylamino}-propionic acid ethyl ester]
11 | 98% | 480 nM | COCCOc1nc(NCc2ccccn2)c2c(-c3ccccc3)csc2n1 [Example 203, [2-(2-Methoxy-ethoxy)-5-phenyl-thieno[2,3-d]pyrimidin-4-yl]-pyridin-2-ylmethyl-amine]
12 | 88% | 1510 nM | CC(C)c1nc(NCc2ccccn2)c2c(-c3ccccc3)csc2n1 [Example 148, (2-Isopropyl-5-phenyl-thieno[2,3-d]pyrimidin-4-yl)-pyridin-2-ylmethyl-amine]
13 | 43.5% | 5030 nM | COC(=O)CNc1ncnc2scc(-c3ccccc3)c12 [Example 112, (5-Phenyl-thieno[2,3-d]pyrimidin-4-ylamino)-acetic acid methyl ester]
14 | 75.8% | 1040 nM | Clc1nc(NCc2ccco2)c2c(-c3ccccc3)csc2n1 [Example 182, (2-Chloro-5-phenyl-thieno[2,3-d]pyrimidin-4-yl)-furan-2-ylmethyl-amine]

From EP1641803B1, “THIENOPYRIMIDINE DERIVATIVES AS POTASSIUM CHANNEL INHIBITORS” (Xention Limited, priority 2003, dated 2004)
